Bridges are numbered along the chain shown (N, C = ends).
What was measured:
[1] = Acute single-dose test on food intake, bodyweight and post-prandial glucose in high fat diet obese rats; type: in vivo, Male Sprague-Dawley rats
Method: To ensure the in vivo activity of this class of peptides, an acute test of the ability of KBP-056 to reduce food intake, bodyweight and post-prandial glucose compared to UGP302/KBP-042 was conducted. Male Sprague-Dawley rats were fed high fat diet for 8 weeks to induce obesity, and were then exposed to a single subcutaneous dose of 5 μg/kg KBP-056, UGP302/KBP-042 or vehicle (saline) (5 rats per group), and the effect on food intake, bodyweight and blood glucose was assessed. Blood was collected from the tail vein after 18 hours of dosing. Whole blood glucose levels were determined with an ACCU-CHEK® Avia blood glucose meter (Roche Diagnostics, Rotkreuz, Switzerland).

[2] = Three-week treatment of ZDF rats: fasting plasma glucose and HbA1c; type: in vivo, male ZDF (fa/fa) rats; details: 5 μg/kg/day subcutaneously once daily, 3 weeks
Method: To assess the effects of the peptides in relation to regulation of blood glucose levels, male ZDF rats, which are the gold standard model of Type 2 Diabetes were treated for 3 weeks with the 3 most promising KBPs (023, 056 and 088) and an active comparator (UGP302/KBP-042). Male ZDF (fa/fa) rats were obtained at the age of 7 weeks from Charles River Laboratories (Kisslegg, Deutschland). All animals were housed at the animal facility at Nordic Bioscience with a constant temperature (21-23° C.) and relative humidity (55-65%) on a 12 h light/dark cycle with free access to Purina 5008 rat chow (Brogaarden, Lynge, Denmark) and tap water. At the age of 8 weeks, the animals were randomized into five groups of 8 rats each based upon fasting blood glucose and body weight (Vehicle (saline), UGP302/KBP-042 5 μg/kg/day, KBP-023 5 μg/kg/day, KBP-056 5 μg/kg/day and KBP-088 5 μg/kg/day) and dosing was done subcutaneously once daily. The animals were treated for a total of 3 weeks to assess the effect of the peptides on fasting blood glucose. Blood glucose was monitored using the Accu-Check® Avia monitoring system (Roche Diagnostics, Rotkreuz, Switzerland) and HbA1c levels by the DCA Vantage™ Analyzer (Siemens Healthcare Diagnostics, Deerfield, Ill.).

[3] = Bone resorption (CTX-I) and cartilage degradation (CTX-II) in rats on HFD; type: in vivo; details: male rats on HFD
Excerpt: This confirmed that the KBPs maintain their beneficial effects on bone and cartilage despite the amino-acid changes.

[4] = biological target: T1, Calcitonin Receptor (CTR) (Homo sapiens, UniProt P30988); test: PathHunter β-arrestin assay on the calcitonin receptor, incl. prolonged activation; type: cell-based; details: U20S-CALCR cells; 4, 8, 24, 48, 72 h; 0.001-100 nM
T1 construct: host or cells: U2OS
T1 sequence (P30988 25-474): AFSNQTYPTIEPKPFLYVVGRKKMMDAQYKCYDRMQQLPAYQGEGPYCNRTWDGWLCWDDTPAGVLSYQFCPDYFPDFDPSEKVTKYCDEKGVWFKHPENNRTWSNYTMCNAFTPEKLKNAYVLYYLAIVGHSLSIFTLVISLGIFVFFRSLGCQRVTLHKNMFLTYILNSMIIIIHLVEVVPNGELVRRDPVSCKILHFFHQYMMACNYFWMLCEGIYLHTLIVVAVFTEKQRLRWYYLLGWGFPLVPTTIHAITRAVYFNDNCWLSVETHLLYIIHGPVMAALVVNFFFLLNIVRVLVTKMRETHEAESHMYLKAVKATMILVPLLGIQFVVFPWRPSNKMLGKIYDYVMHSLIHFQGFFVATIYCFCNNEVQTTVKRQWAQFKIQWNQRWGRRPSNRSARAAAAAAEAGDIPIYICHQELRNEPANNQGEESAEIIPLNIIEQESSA
Method: The following cell lines expressing the calcitonin, amylin and CGRP receptors were purchased and cultured according to the manufacturer's instructions. • 1. Calcitonin Receptor (CTR): U20S-CALCR from DiscoveRx (Cat. No.: 93-0566C3). • 2. Amylin Receptor (AMY-R): CHO-K1 CALCR+RAMP3 from DiscoveRx (Cat. No.: 93-0268C2). • 3. CGRP Receptor (CGRP-R): CHO-K1 CALCRL+RAMP1 from DiscoveRx (Cat. No.: 93-0269C2).
In independent bioassays, CTR, AMY-R and CGRP-R cells were treated with for the indicated timepoints with increasing doses of sCT, UGP-302/KBP-042 or the KBPs identified in Table 3 (0, 0.001, 0.01, 0.1, 1, 10, and 100 nM). […]
In this system, the GPCR is fused in frame with the small enzyme fragment ProLink™ and co-expressed in cells stably expressing a fusion protein of β-Arrestin and the larger, N-terminal deletion mutant of β-gal (called enzyme acceptor or EA). […] This interaction leads to an increase in enzyme activity that can be measured using chemiluminescent PathHunter® Detection Reagents.
The assay was performed in white 384 well plates (Greiner Bio-One, 784080). […] To quantify the GPCR-mediated β-arrestin recruitment the Pathhunter™ Detection Kit (93-0001, DiscoverX) was used and assay performed accordingly to the manufacturer's instructions. […]

[5] = Single-dose food intake in obese High-Fat-Diet rats; type: in vivo; details: single subcutaneous dose 1.25, 2.5, 5 μg/kg; obese rats fasted overnight
Method: Rats were fed a High-Fat-Diet for 14 weeks prior to the experiment to induce obesity.
Further similar studies were undertaken over different time periods and with different peptides and the results are seen in FIG. 10 and FIGS. 11A-11B. The ability of KBP089 to suppress food intake over 72 hours was compared to that of KBP042 as control and the results are seen in FIG. 10.

[6] = Eight-week treatment of obese rats: food intake and bodyweight; type: in vivo; details: 2.5 μg/kg/day subcutaneous
Method: To further investigate the potency of KBP-089 against KBP-042 obese rats were dosed with 2.5 μg/kg/day given as subcutaneous injection of either KBP-089 or KBP-042 and then two control groups, a vehicle and a calorie restriction group, in which the food intake was matched to the food intake of the KBP-089 group to shed light on whether effects independent of food intake could be observed.
In FIGS. 11A-11B; the effect of the peptides on food intake (FIG. 11A) and bodyweight (FIG. […]) during the eight week treatment period is shown in the upper and lower panels respectively. […] Additionally, when comparing KBP-089 to the calorie restricted control group (pair-fed), which has received exactly the same amount of food as the KBP-089 group over the study period, it is clear that the weight reduction is not only mediated by a restriction of food intake, but also by other effects.

| Substance | food intake ([1]; single subcutaneous dose 5 μg/kg, 18-hour period, obese HFD rats) | post-prandial glucose ([1]; single subcutaneous dose 5 μg/kg, blood after 18 hours, obese HFD rats) | bodyweight ([1]; single subcutaneous dose 5 μg/kg, obese HFD rats) | HbA1c [2] | fasting plasma glucose (FPG) [2] | bone resorption (CTX-I) [3] | cartilage degradation (CTX-II) [3] | maximum inhibition of CTX-I and CTX-II [3] | activation of the CTR (β-arrestin) [4] | food intake, 0-4 hours [5] | food intake, 4-24 hours [5] | food intake, 24-48 hours [5] | bodyweight during eight week treatment [6] | food intake during eight week treatment [6] | RANK (48 h) ([1]; rank symbol + or 0 at 48 h, legend not given) |
| --- | --- | --- | --- | --- | --- | --- | --- | --- | --- | --- | --- | --- | --- | --- | --- |
| KBP-056: SEQ ID NO: 11; AcCASLSTCVLGKLSQDLHKLQTFPRTDVGANAP-NH2 as printed in Table 3, Cys1-Cys7 disulphide bridge | strongly reduced food intake | prominent reduction in post-prandial glucose levels | significant weight loss | highly active | highly active | dose and time-dependently reduced | dose and time-dependently reduced | reached three hours after dosing and at doses exceeding 1 μg/kg/day | superior ability to activate and maintain activation of the CTR | – | – | – | – | – | – |
| KBP-089: SEQ ID NO: 44; AcCSNLSTCMLGRLSQDLHRLQTYPKTDVGANAP-NH2, Cys1-Cys7 disulphide bridge (Ac-CSNLSTCMLGRLSQDLHRLQTYPKTDVGANAP-NH2; disulfide 1-7; SMILES CSCC[C@H](NC(=O)[C@@H]1CSSC[C@H](NC(C)=O)C(=O)N[C@@H](CO)C(=O)N[C@@H](CC(N)=O)C(=O)N[C@@H](CC(C)C)C(=O)N[C@@H](CO)C(=O)N[C@@H]([C@@H](C)O)C(=O)N1)C(=O)N[C@@H](CC(C)C)C(=O)NCC(=O)N[C@@H](CCCNC(=N)N)C(=O)N[C@@H](CC(C)C)C(=O)N[C@@H](CO)C(=O)N[C@@H](CCC(N)=O)C(=O)N[C@@H](CC(=O)O)C(=O)N[C@@H](CC(C)C)C(=O)N[C@@H](Cc1c[nH]cn1)C(=O)N[C@@H](CCCNC(=N)N)C(=O)N[C@@H](CC(C)C)C(=O)N[C@@H](CCC(N)=O)C(=O)N[C@H](C(=O)N[C@@H](Cc1ccc(O)cc1)C(=O)N1CCC[C@H]1C(=O)N[C@@H](CCCCN)C(=O)N[C@H](C(=O)N[C@@H](CC(=O)O)C(=O)N[C@H](C(=O)NCC(=O)N[C@@H](C)C(=O)N[C@@H](CC(N)=O)C(=O)N[C@@H](C)C(=O)N1CCC[C@H]1C(N)=O)C(C)C)[C@@H](C)O)[C@@H](C)O) | – | – | – | – | – | – | – | – | – | led to a reduction in food intake | the effect was maintained to 24 hours | led to a reduction in food intake | greater than that introduced by KBP-042 | reduce food intake dramatically in the beginning | – |
| KBP-042: Peptide UGP302 of WO2013/067357, SEQ ID NO: 4; AcCSNLSTCVLGKLSQELHKLQTYPRTDVGANAP-NH2 (Ac-CSNLSTCVLGKLSQELHKLQTYPRTDVGANAP-NH2; ends and bridges not checked) [reference compound] | – | – | – | – | – | – | – | – | – | – | – | – | substantial weight loss | reduce food intake dramatically in the beginning | 0 |
